From ChEMBL document CHEMBL3885881, “DrugMatrix”

Species on record: Rattus norvegicus
Assay: DrugMatrix - Regimen: Daily Repeat
Type: toxicity, organism-based, Sprague-Dawley
Set-up: regimen Daily Repeat, gender Male, age 6-8 weeks
Details: in vivo, po, route oral GAVAGE, vehicle 100 % WATER; for ABSOLUTE BASOPHIL / ABSOLUTE EOSINOPHIL / ABSOLUTE LYMPHOCYTE / ABSOLUTE MONOCYTE / ABSOLUTE SEGMENTED NEUTROPHIL / BASOPHIL / EOSINOPHIL / ERYTHROCYTE COUNT / HEMATOCRIT / HEMOGLOBIN / LEUKOCYTE COUNT / LYMPHOCYTE / MEAN CORPUSCULAR HEMOGLOBIN / MEAN CORPUSCULAR HEMOGLOBIN CONCENTRATION / MEAN CORPUSCULAR VOLUME / MONOCYTE / NEUTROPHIL / NUCLEATED RED BLOOD CELLS / PLATELET COUNT: tissue Blood; for ALANINE AMINOTRANSFERASE / ALBUMIN / ALKALINE PHOSPHATASE / ASPARTATE AMINOTRANSFERASE / BLOOD UREA NITROGEN / CARBON DIOXIDE / CHLORIDE / CHOLESTEROL / CREATINE PHOSPHOKINASE / CREATININE / GLUCOSE / LACTATE DEHYDROGENASE / LIPASE / PHOSPHORUS / POTASSIUM / SODIUM / TOTAL BILIRUBIN / TOTAL PROTEIN / URIC ACID: tissue Plasma
[1] = 0 mg/kg, 72 h, dose level Control, time 3 day
[2] = 0 mg/kg, 120 h, dose level Control, time 5 day
[3] = 100 mg/kg, 72 h, dose level Low, time 3 day

`NC(=O)c1cccnc1` [NIACINAMIDE] was tested, and the “ABSOLUTE BASOPHIL” value [1] was 0 CELLS/uL, the “ABSOLUTE EOSINOPHIL” value [1] was 46 CELLS/uL and the “ABSOLUTE LYMPHOCYTE” value [1] was 10225.67 CELLS/uL. The “ABSOLUTE MONOCYTE” value [1] was 319.33 CELLS/uL, the “ABSOLUTE SEGMENTED NEUTROPHIL” value [1] was 1242.33 CELLS/uL and the BASOPHIL [1] was 0%. The EOSINOPHIL [1] was 0.33%, the “ERYTHROCYTE COUNT” value [1] was 5.17 x10E6/uL and the HEMATOCRIT [1] was 33.43%. For the same compound, the HEMOGLOBIN [1] was 12.55 G/DL, the “LEUKOCYTE COUNT” value [1] was 11.83 x10E3/uL and the LYMPHOCYTE [1] was 86.5%. The “MEAN CORPUSCULAR HEMOGLOBIN” value [1] was 24.35 pg, the “MEAN CORPUSCULAR HEMOGLOBIN CONCENTRATION” value [1] was 37.57 G/DL and the “MEAN CORPUSCULAR VOLUME” value [1] was 64.8 fL. For the same compound, the MONOCYTE [1] was 2.67%, the NEUTROPHIL [1] was 10.5% and the “NUCLEATED RED BLOOD CELLS” value [1] was 0.17 /100WBC. The “PLATELET COUNT” value [1] was 1026.17 x10E3/uL, the “ALANINE AMINOTRANSFERASE” value [1] was 52.67 u/L and the ALBUMIN [1] was 4.17 G/DL. For the same compound, the “ALKALINE PHOSPHATASE” value [1] was 331 u/L, the “ASPARTATE AMINOTRANSFERASE” value [1] was 92.33 u/L and the “BLOOD UREA NITROGEN” value [1] was 15.33 mg/dL. For the same compound, the “CARBON DIOXIDE” value [1] was 26.17 mmol/L, the CHLORIDE [1] was 103.17 MEQ/L and the CHOLESTEROL [1] was 73.67 mg/dL. The “CREATINE PHOSPHOKINASE” value [1] was 472.83 u/L, the CREATININE [1] was 0.29 mg/dL and the GLUCOSE [1] was 178.5 mg/dL. For the same compound, the “LACTATE DEHYDROGENASE” value [1] was 244.83 u/L, the LIPASE [1] was 10.67 u/L and the PHOSPHORUS [1] was 12.45 mg/dL. For the same compound, the POTASSIUM [1] was 6.35 MEQ/L, the SODIUM [1] was 144.27 MEQ/L and the “TOTAL BILIRUBIN” value [1] was 0.13 mg/dL. The “TOTAL PROTEIN” value [1] was 5.77 G/DL, the “URIC ACID” value [1] was 2.08 mg/dL and the “ABSOLUTE BASOPHIL” value [2] was 0 CELLS/uL. The “ABSOLUTE EOSINOPHIL” value [2] was 23.5 CELLS/uL, the “ABSOLUTE LYMPHOCYTE” value [2] was 12797.33 CELLS/uL and the “ABSOLUTE MONOCYTE” value [2] was 465.5 CELLS/uL. The “ABSOLUTE SEGMENTED NEUTROPHIL” value [2] was 1313.67 CELLS/uL, the BASOPHIL [2] was 0% and the EOSINOPHIL [2] was 0.17%. For the same compound, the “ERYTHROCYTE COUNT” value [2] was 5.76 x10E6/uL, the HEMATOCRIT [2] was 36.72% and the HEMOGLOBIN [2] was 13.72 G/DL. For the same compound, the “LEUKOCYTE COUNT” value [2] was 14.6 x10E3/uL, the LYMPHOCYTE [2] was 87.5% and the “MEAN CORPUSCULAR HEMOGLOBIN” value [2] was 23.8 pg. The “MEAN CORPUSCULAR HEMOGLOBIN CONCENTRATION” value [2] was 37.35 G/DL, the “MEAN CORPUSCULAR VOLUME” value [2] was 63.72 fL and the MONOCYTE [2] was 3.17%. The NEUTROPHIL [2] was 9.17%, the “NUCLEATED RED BLOOD CELLS” value [2] was 0.33 /100WBC and the “PLATELET COUNT” value [2] was 1270.67 x10E3/uL. The “ALANINE AMINOTRANSFERASE” value [2] was 50.5 u/L, the ALBUMIN [2] was 4.32 G/DL and the “ALKALINE PHOSPHATASE” value [2] was 339.67 u/L. For the same compound, the “ASPARTATE AMINOTRANSFERASE” value [2] was 88 u/L, the “BLOOD UREA NITROGEN” value [2] was 17 mg/dL and the “CARBON DIOXIDE” value [2] was 25 mmol/L. For the same compound, the CHLORIDE [2] was 103.83 MEQ/L, the CHOLESTEROL [2] was 71.33 mg/dL and the “CREATINE PHOSPHOKINASE” value [2] was 281.83 u/L. For the same compound, the CREATININE [2] was 0.26 mg/dL, the GLUCOSE [2] was 161.67 mg/dL and the “LACTATE DEHYDROGENASE” value [2] was 191.17 u/L. It also gave an LIPASE [2] of 10.17 u/L, a PHOSPHORUS [2] of 11.72 mg/dL and a POTASSIUM [2] of 6.76 MEQ/L. The SODIUM [2] was 145.17 MEQ/L, the “TOTAL BILIRUBIN” value [2] was 0.2 mg/dL and the “TOTAL PROTEIN” value [2] was 6.15 G/DL. The “URIC ACID” value [2] was 2 mg/dL, the “ABSOLUTE BASOPHIL” value [3] was 0 CELLS/uL and the “ABSOLUTE EOSINOPHIL” value [3] was 0 CELLS/uL. The “ABSOLUTE LYMPHOCYTE” value [3] was 11521.67 CELLS/uL, the “ABSOLUTE MONOCYTE” value [3] was 217.67 CELLS/uL and the “ABSOLUTE SEGMENTED NEUTROPHIL” value [3] was 794 CELLS/uL. For the same compound, the BASOPHIL [3] was 0%, the EOSINOPHIL [3] was 0% and the “ERYTHROCYTE COUNT” value [3] was 5.92 x10E6/uL. For the same compound, the HEMATOCRIT [3] was 38.23%, the HEMOGLOBIN [3] was 14.33 G/DL and the “LEUKOCYTE COUNT” value [3] was 12.53 x10E3/uL. For the same compound, the LYMPHOCYTE [3] was 92.33%, the “MEAN CORPUSCULAR HEMOGLOBIN” value [3] was 24.2 pg and the “MEAN CORPUSCULAR HEMOGLOBIN CONCENTRATION” value [3] was 37.47 G/DL. For the same compound, the “MEAN CORPUSCULAR VOLUME” value [3] was 64.53 fL, the MONOCYTE [3] was 1.67% and the NEUTROPHIL [3] was 6%. For the same compound, the “NUCLEATED RED BLOOD CELLS” value [3] was 0.33 /100WBC, the “PLATELET COUNT” value [3] was 1202 x10E3/uL and the “ALANINE AMINOTRANSFERASE” value [3] was 47.67 u/L. The ALBUMIN [3] was 4.43 G/DL, the “ALKALINE PHOSPHATASE” value [3] was 308.33 u/L and the “ASPARTATE AMINOTRANSFERASE” value [3] was 89 u/L. For the same compound, the “BLOOD UREA NITROGEN” value [3] was 17.67 mg/dL, the “CARBON DIOXIDE” value [3] was 25.67 mmol/L and the CHLORIDE [3] was 103.67 MEQ/L. The CHOLESTEROL [3] was 87.33 mg/dL, the “CREATINE PHOSPHOKINASE” value [3] was 322 u/L and the CREATININE [3] was 0.26 mg/dL. For the same compound, the GLUCOSE [3] was 158 mg/dL, the “LACTATE DEHYDROGENASE” value [3] was 344 u/L and the LIPASE [3] was 11.67 u/L. For the same compound, the PHOSPHORUS [3] was 13.47 mg/dL, the POTASSIUM [3] was 6.73 MEQ/L and the SODIUM [3] was 147.7 MEQ/L. For the same compound, the “TOTAL BILIRUBIN” value [3] was 0.2 mg/dL, the “TOTAL PROTEIN” value [3] was 6.2 G/DL and the “URIC ACID” value [3] was 2.6 mg/dL.
